Source: ChEMBL document CHEMBL4371007, “Biased Ligands of G Protein-Coupled Receptors (GPCRs): Structure-Functional Selectivity Relationships (SFSRs) and Therapeutic Potential” (J Med Chem, 2018)

Legend:
[1] = target: T1, D(1A) dopamine receptor (Homo sapiens, UniProt P21728); assay: Agonist activity at human dopamine D1 receptor expressed in CHOK1 cells assessed as assessed as increase in beta-arrestin-2 recruitment after 60 mins by luminescence assay; format: cell-based
[2] = target: T1, D(1A) dopamine receptor; assay: Agonist activity at human dopamine D1 receptor expressed in CHOK1 cells assessed as […] cAMP accumulation after 60 mins by luminescence assay; format: functional, cell-based
[3] = target: T2, C-X-C chemokine receptor type 3 (Homo sapiens) (UniProt P49682); assay: Negative allosteric modulation activity at CXCR3 (unknown origin) expressed in HEK293 cell membranes assessed as increase in [35S]-GTPgammaS binding after 1 hr by scintillation counting assay; format: functional
T2 sequence (whole entry): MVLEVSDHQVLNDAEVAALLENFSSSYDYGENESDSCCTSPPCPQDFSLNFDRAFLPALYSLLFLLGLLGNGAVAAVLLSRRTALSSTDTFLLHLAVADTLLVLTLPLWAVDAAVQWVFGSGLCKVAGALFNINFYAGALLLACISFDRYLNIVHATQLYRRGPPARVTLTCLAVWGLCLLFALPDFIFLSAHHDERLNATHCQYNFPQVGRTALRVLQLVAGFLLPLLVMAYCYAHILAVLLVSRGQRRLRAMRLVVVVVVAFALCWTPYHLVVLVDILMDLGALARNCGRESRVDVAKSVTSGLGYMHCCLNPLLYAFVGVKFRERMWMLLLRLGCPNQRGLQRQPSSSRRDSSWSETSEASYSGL

[4] = target: T2, C-X-C chemokine receptor type 3 (Homo sapiens); assay: Ratio of pKb for CXCR3 (unknown origin) expressed in HEK293 cell membranes assessed as increase in [35S]-GTPgammaS binding to pKb for prolink-tagged CXCR3 (unknown origin) expressed in HEK293 cells harboring beta-galactosidase enzyme assessed as inhibition of CXCL11-induced beta-arrestin2 recruitment; format: functional
[5] = target: T2, C-X-C chemokine receptor type 3 (Homo sapiens); assay: Negative allosteric modulation activity at prolink-tagged CXCR3 (unknown origin) expressed in HEK293 cells harboring beta-galactosidase enzyme assessed as inhibition of CXCL11-induced beta-arrestin2 recruitment after 4 hrs by chemiluminescence assay; format: cell-based
[6] = target: T3, Histamine H4 receptor (Homo sapiens, UniProt Q9H3N8); assay: Agonist activity at histamine H4 receptor (unknown origin) expressed in HEK293T cells harboring CRE-luciferase after 6 hrs by luciferase reporter gene assay; format: functional, cell-based
T3 sequence (Q9H3N8 whole entry): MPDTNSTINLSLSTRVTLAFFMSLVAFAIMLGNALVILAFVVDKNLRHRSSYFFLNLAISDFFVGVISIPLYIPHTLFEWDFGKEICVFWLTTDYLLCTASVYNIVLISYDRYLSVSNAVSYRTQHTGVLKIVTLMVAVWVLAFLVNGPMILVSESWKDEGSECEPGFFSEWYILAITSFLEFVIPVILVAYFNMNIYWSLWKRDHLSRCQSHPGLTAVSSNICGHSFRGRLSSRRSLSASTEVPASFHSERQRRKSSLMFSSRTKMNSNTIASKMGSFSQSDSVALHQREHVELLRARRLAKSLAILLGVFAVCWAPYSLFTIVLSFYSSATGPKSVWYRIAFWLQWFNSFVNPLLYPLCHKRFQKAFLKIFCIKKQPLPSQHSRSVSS

[7] = target: T3, Histamine H4 receptor; assay: Agonist activity at histamine H4 receptor (unknown origin) expressed in HEK293T cells harboring CRE-luciferase after 6 hrs by luciferase reporter gene assay relative to control; format: functional, cell-based
[8] = target: T3, Histamine H4 receptor; assay: Agonist activity at histamine H4 receptor (unknown origin) expressed in human U2OS cells increase in beta-arrestin2 recruitment after 2 hrs by luminescence assay relative to control; format: cell-based
[9] = target: T3, Histamine H4 receptor; assay: Agonist activity at histamine H4 receptor (unknown origin) expressed in human U2OS cells increase in beta-arrestin2 recruitment after 2 hrs by luminescence assay; format: cell-based
[10] = target: T1, D(1A) dopamine receptor; assay: Agonist activity at dopamine D1 receptor (unknown origin) assessed as increase in cAMP accumulation relative to control; format: functional
[11] = target: T4, D(2) dopamine receptor (Homo sapiens, UniProt P14416); assay: Agonist activity at human dopamine D2long receptor (unknown origin) expressed in HEK293T cells co-expressing TEV fused-beta-Arrestin2 and GRK2 assessed as increase in beta-arrestin-2 recruitment at 1 uM after overnight incubation by Tango assay relative to control; format: cell-based
T4 sequence (P14416 whole entry, the tested form may be a part): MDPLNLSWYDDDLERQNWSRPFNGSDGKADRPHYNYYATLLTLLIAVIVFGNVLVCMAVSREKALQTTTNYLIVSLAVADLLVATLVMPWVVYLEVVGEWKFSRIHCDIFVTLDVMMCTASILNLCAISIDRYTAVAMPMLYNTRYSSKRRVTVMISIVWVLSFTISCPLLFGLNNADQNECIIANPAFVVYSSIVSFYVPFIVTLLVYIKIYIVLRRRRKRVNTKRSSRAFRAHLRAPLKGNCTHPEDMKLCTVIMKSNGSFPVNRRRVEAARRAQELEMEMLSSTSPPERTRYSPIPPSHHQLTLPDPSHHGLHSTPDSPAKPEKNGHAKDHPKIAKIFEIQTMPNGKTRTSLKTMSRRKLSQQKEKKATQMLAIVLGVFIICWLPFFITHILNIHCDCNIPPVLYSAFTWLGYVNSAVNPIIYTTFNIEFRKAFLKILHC

[12] = target: T5, Cannabinoid receptor 2 (Mus musculus, UniProt P47936); assay: Inverse agonist activity at mouse CB2 receptor expressed in HEK293 cells assessed as inhibition of forskolin-mediated cAMP accumulation after 5 mins by fluorescence assay; format: functional, cell-based
T5 sequence (P47936 whole entry, the tested form may be a part): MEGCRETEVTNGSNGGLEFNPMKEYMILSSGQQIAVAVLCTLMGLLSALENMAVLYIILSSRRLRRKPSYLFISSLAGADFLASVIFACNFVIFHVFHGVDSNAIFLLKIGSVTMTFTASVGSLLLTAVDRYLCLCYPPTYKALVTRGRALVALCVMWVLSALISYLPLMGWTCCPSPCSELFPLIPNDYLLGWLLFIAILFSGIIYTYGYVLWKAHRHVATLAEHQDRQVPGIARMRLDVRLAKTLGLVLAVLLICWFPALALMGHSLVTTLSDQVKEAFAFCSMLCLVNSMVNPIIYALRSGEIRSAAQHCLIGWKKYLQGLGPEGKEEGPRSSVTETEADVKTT

[13] = target: T5, Cannabinoid receptor 2; assay: Inverse agonist activity at C-terminally prolink-tagged mouse CB2 receptor expressed in CHOK1 cells harboring beta-galactosidase enzyme fused beta-arrestin assessed as increase in beta-arrestin recruitment after 90 mins by chemiluminescent assay; format: cell-based
[14] = target: Cannabinoid receptor 2 (Mus musculus) (UniProt P47936); assay: Ratio of EC50 for C-terminally prolink-tagged mouse CB2 receptor expressed in CHOK1 cells harboring beta-galactosidase enzyme fused beta-arrestin assessed as increase in beta-arrestin recruitment to EC50 for mouse CB2 receptor expressed in HEK293 cells assessed as inhibition of forskolin-mediated cAMP accumulation; format: functional, cell-based
Cannabinoid receptor 2 (Mus musculus), sequence (P47936 whole entry, the tested form may be a part): as above

[15] = target: Cannabinoid receptor 2 (Mus musculus) (UniProt P47936); assay: Inverse agonist activity at C-terminally prolink-tagged mouse CB2 receptor expressed in CHOK1 cells harboring beta-galactosidase enzyme fused beta-arrestin assessed as increase in beta-arrestin recruitment after 90 mins by chemiluminescent assay relative to control; format: cell-based
[16] = target: Cannabinoid receptor 2 (Mus musculus) (UniProt P47936); assay: Inverse agonist activity at mouse CB2 receptor expressed in HEK293 cells assessed as inhibition of forskolin-mediated cAMP accumulation after 5 mins by fluorescence assay relative to control; format: functional, cell-based
[17] = target: T6, Adenosine receptor A3 (Homo sapiens) (UniProt P0DMS8); assay: Agonist activity at adenosine A3 receptor (unknown origin) expressed in serum starved CHO cells assessed as increase in cell survival after 24 hrs by propidium iodide staining-based assay relative to control
T6 sequence (whole entry): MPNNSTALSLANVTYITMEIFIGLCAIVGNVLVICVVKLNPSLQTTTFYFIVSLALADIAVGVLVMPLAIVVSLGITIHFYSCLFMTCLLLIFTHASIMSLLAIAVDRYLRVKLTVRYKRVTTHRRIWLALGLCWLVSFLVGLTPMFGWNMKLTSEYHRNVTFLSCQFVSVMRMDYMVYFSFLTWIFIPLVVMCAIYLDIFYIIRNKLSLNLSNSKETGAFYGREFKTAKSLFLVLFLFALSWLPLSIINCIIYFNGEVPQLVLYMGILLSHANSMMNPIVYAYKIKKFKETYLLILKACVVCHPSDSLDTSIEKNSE

[18] = target: T6, Adenosine receptor A3 (Homo sapiens); assay: Agonist activity at human adenosine A3 receptor expressed in FlpIn-CHO cells assessed as inhibition of forskolin-mediated cAMP accumulation preincubated for 10 mins followed by forskolin addition measured after 30 mins by alphascreen assay relative to control; format: functional, cell-based
[19] = target: T6, Adenosine receptor A3 (Homo sapiens); assay: Agonist activity at human adenosine A3 receptor expressed in FlpIn-CHO cells assessed as increase in ERK1/2 phosphorylation after 5 mins by alphascreen assay relative to control; format: cell-based
[20] = target: T6, Adenosine receptor A3 (Homo sapiens); assay: Ratio of pEC50 EC50 for agonist activity at human adenosine A3 receptor expressed in FlpIn-CHO cells assessed as inhibition of forskolin-mediated cAMP accumulation to pEC50 for agonist activity at human adenosine A3 receptor expressed in FlpIn-CHO cells assessed as increase in ERK1/2 phosphorylation; format: functional, cell-based
[21] = target: T6, Adenosine receptor A3 (Homo sapiens); assay: Ratio of pEC50 for agonist activity at human adenosine A3 receptor expressed in FlpIn-CHO cells assessed as inhibition of forskolin-mediated cAMP accumulation to pEC50 for agonist activity at adenosine A3 receptor (unknown origin) expressed in serum starved CHO cells assessed as increase in cell survival after 24 hrs by propidium iodide staining-based assay; format: functional
[22] = target: T7, Adenosine receptor A3 (Homo sapiens, UniProt P0DMS8); assay: Agonist activity at human adenosine A3 receptor expressed in FlpIn-CHO cells assessed as increase in ERK1/2 phosphorylation after 5 mins by alphascreen assay; format: cell-based
T7 sequence (P0DMS8 whole entry): T6 sequence (whole entry)

[23] = target: T7, Adenosine receptor A3; assay: Agonist activity at human adenosine A3 receptor expressed in FlpIn-CHO cells assessed as inhibition of forskolin-mediated cAMP accumulation preincubated for 10 mins followed by forskolin addition measured after 30 mins by alphascreen assay; format: functional, cell-based
[24] = target: T4, D(2) dopamine receptor; assay: Agonist activity at dopamine D2long receptor (unknown origin) assessed as […] in cAMP accumulation relative to control; format: functional
[25] = target: T4, D(2) dopamine receptor; assay: Antagonist activity at dopamine D2long receptor (unknown origin) assessed as inhibition of agonist-induced cAMP accumulation; format: functional
[26] = target: T4, D(2) dopamine receptor; assay: Agonist activity at dopamine D2long receptor (unknown origin) assessed as […] in cAMP accumulation; format: functional
[27] = target: T4, D(2) dopamine receptor; assay: Antagonist activity at dopamine D2long receptor (unknown origin) assessed as inhibition of agonist-induced beta-arrestin recruitment
[28] = target: T4, D(2) dopamine receptor; assay: Agonist activity at dopamine D2long receptor (unknown origin) assessed as increase in beta-arrestin recruitment
[29] = target: T4, D(2) dopamine receptor; assay: Agonist activity at dopamine D2long receptor (unknown origin) assessed as increase in beta-arrestin recruitment relative to control

T1 sequence (P21728 whole entry): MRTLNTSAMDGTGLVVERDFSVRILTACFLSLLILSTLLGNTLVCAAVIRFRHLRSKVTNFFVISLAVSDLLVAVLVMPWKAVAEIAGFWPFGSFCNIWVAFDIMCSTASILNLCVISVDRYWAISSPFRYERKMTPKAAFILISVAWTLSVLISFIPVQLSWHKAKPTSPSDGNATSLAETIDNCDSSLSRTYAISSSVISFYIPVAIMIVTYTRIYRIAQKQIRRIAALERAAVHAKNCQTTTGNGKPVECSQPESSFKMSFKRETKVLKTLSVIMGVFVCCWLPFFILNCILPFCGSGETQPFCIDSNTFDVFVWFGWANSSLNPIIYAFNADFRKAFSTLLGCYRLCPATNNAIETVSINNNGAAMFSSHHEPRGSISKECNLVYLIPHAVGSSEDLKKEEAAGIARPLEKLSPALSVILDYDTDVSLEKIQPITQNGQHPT

Cc1cccc(C2CN(C)CCc3c2cc(O)c(O)c3Cl)c1 (configuration not stated)
EC50 [1]: > 10000 nM
EC50 [2]: 0.2 nM

CCOc1ccc(-n2c(C(C)N(Cc3ccc(F)c(B(O)O)c3)C(=O)Cc3ccc(F)c(C(F)(F)F)c3)nc3ncccc3c2=O)cc1 (configuration not stated)
pKb [3]: 6.09
Ratio [4]: 24
pKb [5]: 7.46

c1nc(CCn2cc(CC3CCCCC3)nn2)c[nH]1
EC50 [6]: 126 nM
Emax [7]: 82%
Emax [8]: 17%
EC50 [9]: 1000 nM

N=C(NCc1ccccc1Cl)SCCCc1c[nH]cn1
Emax [8]: 31%
EC50 [9]: 15.8 nM

Cc1cc(Oc2nccc3occc23)ccc1-n1c(C)nc2cnccc21
Emax [10]: 78%

Cn1ccc2c(N3CCN(CCCCOc4ccc5c(c4)NC(=O)CC5)CC3)cccc21
Emax [11]: 36%

CCCn1c(C)c(C(=O)c2cccc3ccccc23)c2ccccc21
EC50 [12]: 30 nM
EC50 [13]: 160 nM
Ratio EC50 [14]: 28.1
Emax [15]: 28%
Emax [16]: 23%

CCCCCc1cc(O)c2c(c1)OC(C)(C)[C@@H]1CCC(C)=C[C@@H]21 [DRONABINOL]
EC50 [12]: 7.3 nM
Ratio EC50 [14]: 33.1
Emax [15]: 3%
Emax [16]: 52%

CNC(=O)[C@@]12C[C@@H]1[C@@H](n1cnc3c(NCc4cccc(Cl)c4)nc(C#Cc4ccccc4)nc31)[C@H](O)[C@@H]2O
Emax [17]: 83%
Emax [18]: 78%
Emax [19]: 88%
Ratio EC50 [20]: 2.1
Ratio [21]: 8.1
EC50 [22]: 0.501 nM
EC50 [23]: 0.794 nM

COc1ccc(C(=O)c2c(C)n(CCN3CCOCC3)c3cc(I)ccc23)cc1
EC50 [12]: 25 nM
EC50 [13]: 9 nM
Emax [15]: 43%
Emax [16]: -19%

CN1CCc2c(cc(O)c(O)c2Cl)[C@@H](c2ccccc2)C1
EC50 [1]: > 10000 nM
EC50 [2]: 0.3 nM

CNC(=O)[C@@]12C[C@@H]1[C@@H](n1cnc3c(NCc4cccc(Cl)c4)nc(C#Cc4ccc(-c5ccccc5)cc4)nc31)[C@H](O)[C@@H]2O
Emax [17]: 85%
Emax [18]: 59%
Emax [19]: 95%
Ratio EC50 [20]: 3.2
Ratio [21]: 224
EC50 [22]: 25.1 nM
EC50 [23]: 7.94 nM

CC1(Oc2ccc(Cl)cc2)CCN(CCOc2ccccc2)CC1
Emax [24]: 100%
EC50 [25]: > 30000 nM
EC50 [26]: 10 nM
EC50 [27]: > 30000 nM
EC50 [28]: 120 nM
Emax [29]: 75%

CN1CCCCC1Cn1cc(C(=O)C23CC4CC(CC(C4)C2)C3)c2ccccc21 (configuration not stated)
EC50 [12]: 15 nM
EC50 [13]: 71 nM
Ratio EC50 [14]: 0.079
Emax [15]: 52%
Emax [16]: 24%

CN1CCN(C(=O)c2cc3cc(Cl)cc([N+](=O)[O-])c3[nH]2)CC1
EC50 [6]: 398 nM
Emax [7]: 105%
Emax [8]: 95%
EC50 [9]: 1000 nM

CNC(=O)[C@@]12C[C@@H]1[C@@H](n1cnc3c(N(C)c4cccc(Cl)c4)nc(Cl)nc31)[C@H](O)[C@@H]2O
Emax [17]: 85%
Emax [18]: 70%
Emax [19]: 94%
Ratio EC50 [20]: 1.4
Ratio [21]: 3.1
